For one molecule, Ki results are on record in publication PMC3895372 (Nature communications, 2014).

In experiment [1] the target is T1, µ-calpain (Sus scrofa, UniProt P35750).
T1 sequence (P35750 1-714): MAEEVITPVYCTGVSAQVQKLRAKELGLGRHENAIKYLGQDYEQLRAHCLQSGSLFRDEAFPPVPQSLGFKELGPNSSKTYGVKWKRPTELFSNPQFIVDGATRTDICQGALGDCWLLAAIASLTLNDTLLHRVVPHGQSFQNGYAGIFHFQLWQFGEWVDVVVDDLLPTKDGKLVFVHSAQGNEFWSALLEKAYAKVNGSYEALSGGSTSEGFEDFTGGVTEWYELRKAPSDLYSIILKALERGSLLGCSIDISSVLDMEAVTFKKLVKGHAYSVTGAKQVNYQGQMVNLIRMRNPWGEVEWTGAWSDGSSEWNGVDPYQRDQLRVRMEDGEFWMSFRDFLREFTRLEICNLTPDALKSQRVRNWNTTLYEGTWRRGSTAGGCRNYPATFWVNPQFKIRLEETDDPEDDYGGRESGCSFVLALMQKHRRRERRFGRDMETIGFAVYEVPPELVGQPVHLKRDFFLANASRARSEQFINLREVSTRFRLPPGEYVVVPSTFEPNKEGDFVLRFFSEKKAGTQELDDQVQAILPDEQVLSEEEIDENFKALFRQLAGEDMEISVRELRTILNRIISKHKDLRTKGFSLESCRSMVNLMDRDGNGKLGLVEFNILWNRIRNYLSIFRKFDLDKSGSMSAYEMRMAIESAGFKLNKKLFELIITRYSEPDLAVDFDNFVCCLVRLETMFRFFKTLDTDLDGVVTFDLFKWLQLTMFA
T1 sequence (P04574 1-266 partner): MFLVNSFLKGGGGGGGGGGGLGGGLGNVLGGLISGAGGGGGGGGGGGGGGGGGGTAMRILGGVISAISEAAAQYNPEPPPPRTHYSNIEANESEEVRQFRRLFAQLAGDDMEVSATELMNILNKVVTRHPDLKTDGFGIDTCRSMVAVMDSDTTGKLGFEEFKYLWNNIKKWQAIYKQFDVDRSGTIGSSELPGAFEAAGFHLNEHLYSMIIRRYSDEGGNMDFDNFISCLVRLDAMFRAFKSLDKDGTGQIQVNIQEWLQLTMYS
Kind of experiment: fluorogenic Suc-Leu-Tyr-AMC hydrolysis assay with purified enzyme. The format is biochemical.

In experiment [2] the target is T2, m-calpain (Rattus norvegicus, UniProt Q07009).
T2 sequence (Q07009 20-700): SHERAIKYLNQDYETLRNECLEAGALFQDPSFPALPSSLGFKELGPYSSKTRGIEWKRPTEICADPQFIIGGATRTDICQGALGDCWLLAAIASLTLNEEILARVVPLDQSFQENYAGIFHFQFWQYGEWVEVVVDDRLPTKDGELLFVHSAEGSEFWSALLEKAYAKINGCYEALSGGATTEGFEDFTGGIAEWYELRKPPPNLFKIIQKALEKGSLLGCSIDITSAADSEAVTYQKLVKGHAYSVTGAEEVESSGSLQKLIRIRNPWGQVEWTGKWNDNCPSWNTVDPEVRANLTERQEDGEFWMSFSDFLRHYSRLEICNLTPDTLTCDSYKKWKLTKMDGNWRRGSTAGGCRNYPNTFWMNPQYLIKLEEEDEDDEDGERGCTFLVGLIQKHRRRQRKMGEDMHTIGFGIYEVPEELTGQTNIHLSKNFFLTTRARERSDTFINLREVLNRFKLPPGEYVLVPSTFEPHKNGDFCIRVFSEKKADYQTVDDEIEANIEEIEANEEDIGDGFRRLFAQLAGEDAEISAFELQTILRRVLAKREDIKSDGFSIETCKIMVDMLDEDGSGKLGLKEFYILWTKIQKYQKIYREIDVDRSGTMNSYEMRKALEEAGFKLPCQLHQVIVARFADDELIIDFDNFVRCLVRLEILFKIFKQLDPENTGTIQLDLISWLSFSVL
T2 sequence (Q64537 1-270 partner): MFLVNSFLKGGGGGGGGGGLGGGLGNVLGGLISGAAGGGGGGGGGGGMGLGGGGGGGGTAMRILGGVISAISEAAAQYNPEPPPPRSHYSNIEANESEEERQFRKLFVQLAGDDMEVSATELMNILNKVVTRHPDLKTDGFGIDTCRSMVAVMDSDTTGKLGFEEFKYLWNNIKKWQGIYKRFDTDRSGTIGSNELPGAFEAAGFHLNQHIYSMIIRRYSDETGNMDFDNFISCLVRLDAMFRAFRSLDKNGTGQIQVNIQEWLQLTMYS
The description is as above. The format is biochemical.

Regarding `CC[C@H](NC(=O)[C@H](CC(C)C)NC(=O)OCc1ccccc1)C(=O)C(=O)NCc1cc(OC)cc(OC)c1` [mCalp-I], the values for the Ki in experiment [1] and in experiment [2] were 940 nM and 25 nM, respectively.
